The values that follow come from patent publication US4762848A, “1,3-thiazoles and their use as immunomodulators” (Hoechst Aktiengesellschaft, priority 1985, dated 1988).

Structures are written as SMILES.

The test system of experiment [1] is macrophages. Briefly: Stimulation of macrophage activity (chemiluminescence), relative to the compound from Example 7. The experiment is classed as in vivo, NMRI mice. The conditions noted are these: 100 mg/kg, 1 × i.p. day 0; relative to Example 7 = 100%. Here is the method: (§1) This entailed investigation of the effect of the test substance obtained as in exemplary embodiment 7 on the stimulation of peritoneal macrophages in 6-8 week old NMRI mice. Female mice received the test substance in parenteral or oral doses of 25 mg/kg, 50 mg/kg, 100 mg/kg and 200 mg/kg. Buffered saline solution was administered to a control group. The mice were sacrificed three days after the injections, and the peritoneal macrophages of the animals were examined for their state of activation. The secretion of the lysosomal enzymes (β-galactosidase, β-glucuronidase and N-acetyl-β-D-glucosaminidase) was determined as one measure of macrophage activation. […] The level of oxidative metabolism in macrophages is taken as another measure of their state of activation. This activity is measured with the assistance of a biolumate by determination of the chemiluminescence.
(§2) For this purpose, either 3×10^6 macrophages were cultured with 1 ml of TC 199 culture medium in Petri dishes of diameter 30 mm or 10^6 macrophages were cultured with 100 μl of medium in round-bottomed polyethylene tubes (for determination of the chemiluminescence), with 5% CO2 and at 37° C.
(§3) After incubation for one hour, the cultures were washed to remove floating cells. The chemiluminescence (tube culture) was then determined directly, whereas the Petri dishes were incubated for a further 24 hours at 37° C. and then the enzyme and pinocytosis activities in the cultures were determined.
(§4) NMRI mice were treated with the compounds according to the invention as described in experiment 2.
(§5) The macrophage function (chemiluminescence and enzyme activity) was checked as a test to determine the immunostimulation.
(§6) It can be seen from the table that in comparison with macrophages from untreated animals, the chemiluminescence reaction of these cells was also greatly stimulated by all the test substances, and their content of lysosomal enzymes was markedly raised.

The subject of experiment [2] is macrophages. Briefly: Stimulation of macrophage activity (exocytosis / lysosomal enzyme activity), relative to the compound from Example 7. The experiment is classed as in vivo, NMRI mice. To be noted: 100 mg/kg, 1 × i.p. day 0; relative to Example 7 = 100%. The protocol:
as §1, §2, §3, §4, §5, §6

A further experiment relates to DTH reaction (SRBC). Briefly: Stimulation of the DTH reaction, relative to the compound from Example 7. The conditions noted are these: 1 × i.p. day 0, relative to Example 7 = 100%. It is filed as in vivo, NMRI mice. Here is the method: Either 10^6 or 10^9 red blood cells from sheep were administered intravenously to each animal in groups of 5 female NMRI mice weighing 18-20 g. Sheep erythrocytes are regarded in immunology as a standard test substance (antigen) for the induction of cellular and humoral immune reactions. In particular, this test provides information about the functioning of the T-cell-dependent component (T-helper cells) of the immune system. The test substance obtained as in exemplary embodiment 7 ([2-(3-carboxy-1-propylthio)-4 -methyl-1,3-thiazol-5-yl]acetic acid) was administered intraperitoneally and perorally, respectively, […], each animal received 2×10^8 sheep erythrocytes injected into the underside of the foot and, 24 hours later, the swelling of the foot was measured. The foot swelling is induced by a skin reaction of the delayed type (delayed type hypersensitivity, DTH) and is, as is known to the expert, a measure of the cellular immune response (Collins, F. M. and Mackaness, G. B., J. Immunol. 101, 830-845, 1968). The results compiled in Table 1 illustraste that there is an increase in the cellular immune response owing to the administration of the subst nce obtained according to the invention, for example after imnunization with 10^6 or 10^9 sheep erythrocytes. An optimum stimulation can be observed in this experimental design on administration of 20-40 mg/kg test substance.
NMRI mice were treated with the substances according to the invention as described in experiment 1.
The DTH reaction was checked as a test to determine the immunostimulation.
It can be seen from the table that the DTH reaction in the animals pretreated with the test substances is more pronounced than in the corresponding control animals.

The next experiment concerns Candida albicans. The conditions noted are these: ketoconazole 70 mg/kg (d-1-6, p.o.) alone.

Method for Candida albicans: Female Balb/c mice (15/group) were infected intravenously with Candida albicans (10^6 cfu/mouse) (day 0). Three groups were formed: group 1 was treated with physiological saline solution, and group 2 received 70 mg/kg ketoconazole orally on 7 consecutive days (days -1-6). Group 3 received 10 intraperitoneal injections of 2 mg/kg test substance on days 3-30 (every 3rd day) in addition to ketoconazole. The number of animals which died was recorded each day, and the time at which 50% of the animals in each group had died (T50) was determined.

For the molecule `O=C(O)CSc1scnc1C(=O)O` [Example 15, 5-Carboxymethylthio-1,3-thiazol-4-ylcarboxylic acid], in the experiment with macrophages [1], the “Macrophage activity: Chemiluminescence, relative activity” value amounted to 49%. In addition, the “Macrophage activity: Exocytosis, relative activity” value with macrophages [2] was 172%.

Consider `O=C(O)CCCSc1nnc(SCCCC(=O)O)s1` [Example 27, 2,5-Di(3-carboxy-1-propylthio)-1,3,4-thiadiazole], for which the “DTH reaction (SRBC), relative activity” value with DTH reaction (SRBC) (20 mg/kg) stood at 144%. In addition, the “Macrophage activity: Chemiluminescence, relative activity” value in the experiment with macrophages [1] worked out at 22%. Moreover, the “Macrophage activity: Exocytosis, relative activity” value in the experiment on macrophages [2] is reported as 258%.

With `CC(=O)N1CCN(c2ccc(OCC3COC(Cn4ccnc4)(c4ccc(Cl)cc4Cl)O3)cc2)CC1` (centres unmarked) [Ketoconazole, ketoconazole], the “T50 (time at which 50% of the animals had died)” value in the experiment on Candida albicans was found to be 18 days.

As for `Cc1nc(SCCCC(=O)O)sc1C(=O)O` [Example 39], the “DTH reaction (SRBC), relative activity” value in the experiment with DTH reaction (SRBC) (100 mg/kg) is on record as 210%. Also, in the experiment on macrophages [1], the “Macrophage activity: Chemiluminescence, relative activity” value is listed as 35%. In addition, in the experiment on macrophages [2], the “Macrophage activity: Exocytosis, relative activity” value is 148%.

Turning to `O=C(O)CSc1nnc(SCC(=O)O)s1` [Example 25, 2,5-Dicarboxymethylthio-1,3,4-thiadiazole], the “DTH reaction (SRBC), relative activity” value in the experiment with DTH reaction (SRBC) (100 mg/kg) was 115%. The “Macrophage activity: Chemiluminescence, relative activity” value with macrophages [1] worked out at 26%. In addition, the “Macrophage activity: Exocytosis, relative activity” value in the experiment on macrophages [2] came to 186%.

As to `O=C(O)CSc1nc(O)nn1-c1ccccc1` [Example 24, 1-Phenyl-3-hydroxy-1,2,4-triazol-5-ylmercaptoacetic acid], the “DTH reaction (SRBC), relative activity” value in the experiment on DTH reaction (SRBC) (100 mg/kg) is on record as 115%. In addition, in the experiment with macrophages [1], the “Macrophage activity: Chemiluminescence, relative activity” value was 57%. Besides, the “Macrophage activity: Exocytosis, relative activity” value in the experiment on macrophages [2] is on record as 218%.

For `CSc1nc(C)c(CC(=O)O)s1` [Example 1, 2-Methylmercapto-4-methyl-1,3-thiazol-5-ylacetic acid], the “Macrophage activity: Chemiluminescence, relative activity” value in the experiment on macrophages [1] was determined as 29%. Besides, the “Macrophage activity: Exocytosis, relative activity” value in the experiment with macrophages [2] came to 124%.
